From paper PMC8318231, “Rate-of-Kill (RoK) assays to triage large compound sets for Chagas disease drug discovery: Application to GSK Chagas Box” (PLoS Neglected Tropical Diseases, 2021)

Key:
TcCYP51 = details: formerly reported; cited from earlier work
[1] = test system: T. cruzi Tulahuen trypomastigotes; assay: T. cruzi trypomastigote assay (Cell Titer-Glo viability, ATP luminescence); assay type: cell-based, Trypanosoma cruzi; details: for Trypomastigotes pIC50 48 hours: 48 hours incubation; for Trypomastigotes pIC50 48 hours / Trypomastigotes pIC50 72 hours: pIC50 = -log10 IC50 in molar units; for Trypomastigotes pIC50 72 hours: 72 hours incubation; for 48 pIC50 / 72 pIC50: trypomastigote assay; for 48 pIC50: 48 h; for 72 pIC50: 72 h
Method: T. cruzi Tulahuen trypomastigotes obtained from the supernatants of LLC-MK2 infected cultures in a 225 cm^2 T-Flasks harvested between days 5 and 8 of infection. Trypomastigotes (5 × 10^4 per well) in 50 μl of DMEM/ 2% FBS were dispensed into white 384 plates (Greiner) pre-stamped with 250 nl compound a single-shot final concentration of 5 μM, or in dose response. […] Cell Titer-Glo cell viability solution (Promega) was added to each well (50 μL) incubated at room temperature for 10 min and luminescence read by Envision plate reader (Perkin Elmer). This assay quantifies the amount of ATP present which is directly proportional to the number of metabolically active cells. All data were normalised (100% effect control for no cells and 0% effect control for DMSO). This assay was adapted from MacLean et al., 2018 [22].

SMILES | CYP51 pIC50 (TcCYP51) | Trypomastigotes pIC50 48 hours [1] | Trypomastigotes pIC50 72 hours [1] | 48 pIC50 ([1]; figure 1A) | 72 pIC50 ([1]; figure 1A) | 72 pIC50 ([1]; figure 1B)
COc1ccc(C)cc1-c1csc(NC(=O)C(C)n2ccnc2)n1 (stereo not drawn) [TCMDC-143430] | 7.4 | < 4.3 | < 4.3 | < 4.3 | < 4.3 | < 4.3
Cc1c([N+](=O)[O-])c(C(=O)Nc2sc3c(c2C#N)CCC(C)C3)nn1C (stereo not drawn) [TCMDC-143155] | < 4 | 5.3 | 5.3 | 5.3 | 5.3 | 5.3
O=C(Nc1ncc([N+](=O)[O-])s1)C1CC1 [TCMDC-143417] | < 4 | 6.1 | 6 | – | – | –
O=C(Nc1ccc(Br)cn1)c1ccc(Cn2cnc([N+](=O)[O-])n2)cc1 [TCMDC-143156] | < 4 | 6.1 | 6.1 | 6.1 | 6.1 | 6.1
O=C(COc1ncnc2cc([N+](=O)[O-])ccc12)NC(=O)NC1CCCCC1 [TCMDC-143564] | < 4 | 5.7 | 5.9 | – | – | –
Fc1ccccc1N1C[C@H]2CCN(c3cccnc3)C[C@H]2C1.O=C(O)C(F)(F)F [TCMDC-143422] | 7.2 | 4.6 | < 4.3 | – | – | –
O=C(NCCNc1noc(-c2ccc([N+](=O)[O-])cc2)n1)c1ccc(Cl)cc1 [TCMDC-143241] | < 4 | 5.4 | 5.5 | – | – | –
Cl.Clc1ccc(C(CC2CCCCO2)Cn2cncn2)c(Cl)c1 (stereo not drawn) [TCMDC-143082] | 6.6 | < 4.3 | < 4.3 | < 4.3 | < 4.3 | < 4.3
Cc1ccc2c(c1)-c1onc(C(=O)N3CCCCC3c3cccnc3)c1CO2 (stereo not drawn) [TCMDC-143191] | 7 | 4.7 | 4.4 | – | – | –
Nc1ncnc2c1ncn2[C@@H]1O[C@H](CO)C[C@H]1O [TCMDC-143080] | < 4 | < 4.3 | 6 | – | – | –
CN(Cc1cc2ccccc2s1)c1ncc2c(N)nc(N)nc2n1 [TCMDC-143232] | < 4 | 5.3 | 5.5 | – | – | –
CCN(CC)S(=O)(=O)c1ccc(Cn2nc(C(=O)Nc3ccncn3)c3ccccc32)cc1 [TCMDC-143288] | 6.8 | < 4.3 | < 4.3 | < 4.3 | < 4.3 | < 4.3
C=CCOCC1Cn2nc([N+](=O)[O-])nc2O1 (stereo not drawn) [TCMDC-143149] | < 4 | < 4.3 | < 4.3 | < 4.3 | < 4.3 | < 4.3
Clc1cc(Br)ccc1OCCCCn1ccnc1.O=C(O)C(=O)O [TCMDC-143590] | 7.2 | 5.4 | 5.3 | – | – | –
O=C(NC(c1ccc(Cl)cc1)c1cnccn1)C1CCN(C(=O)Nc2cccc(C(F)(F)F)c2)CC1 (stereo not drawn) [TCMDC-143561] | 6.9 | < 4.3 | < 4.3 | < 4.3 | < 4.3 | < 4.3
CNc1cncc(C2CCCN2C(=O)Cc2ccc3ccccc3c2)n1 (stereo not drawn) [TCMDC-143465] | 7 | < 4.3 | < 4.3 | < 4.3 | < 4.3 | < 4.3
CC(C(=O)Nc1ccc(Br)cc1)N1CCN(c2ccc([N+](=O)[O-])cc2)CC1 (stereo not drawn) [TCMDC-143545] | 4.4 | < 4.3 | < 4.3 | < 4.3 | < 4.3 | < 4.3
O=S(=O)(NCC(c1cccnc1)N1CCN(c2ccc(F)cc2)CC1)c1cccs1 (stereo not drawn) [TCMDC-143542] | 7.4 | < 4.3 | < 4.3 | < 4.3 | < 4.3 | < 4.3

SMILES | CYP51 pIC50 (TcCYP51) | Trypomastigotes pIC50 48 hours [1] | Trypomastigotes pIC50 72 hours [1] | 48 pIC50 ([1]; figure 1A) | 72 pIC50 ([1]; figure 1A) | 72 pIC50 ([1]; figure 1B)
C=CCn1nc([N+](=O)[O-])nc1Oc1ccc(Cl)cc1Cl [TCMDC-143151] | 4.7 | 6.1 | 6.3 | – | – | –
CCC1Oc2cc(S(=O)(=O)N(C)CC(=O)N3CCc4ccccc4C3)c(C)cc2NC1=O (stereo not drawn) [TCMDC-143332] | 6.1 | < 4.3 | < 4.3 | < 4.3 | < 4.3 | < 4.3
CN(Cc1ccc(F)cc1)c1ccc(OCC(=O)N2CCCCC2c2cccnc2)nn1 (stereo not drawn) [TCMDC-143334] | 7.3 | < 4.3 | < 4.3 | < 4.3 | < 4.3 | < 4.3
O=C(NCCc1nc(-c2ccc(F)c(F)c2)n[nH]1)C1CCCCC1 [TCMDC-143466] | 4.6 | < 4.3 | 4.5 | – | – | –
O=C1CCCCCC1(Cc1cnc[nH]1)c1ccc(Cl)cc1Cl (stereo not drawn) [TCMDC-143081] | 7 | < 4.3 | < 4.3 | < 4.3 | < 4.3 | < 4.3
COc1ccc(C(=O)N2CCC(Nc3cccnc3)C2)c(OC)n1 (stereo not drawn) [TCMDC-143474] | 7.2 | < 4.3 | < 4.3 | < 4.3 | < 4.3 | < 4.3
CC1=C(C(=O)Nc2ccc(Cl)cc2)C(c2ccncc2)n2ncc(C(=O)Nc3ccccc3)c2N1 (stereo not drawn) [TCMDC-143187] | 6.9 | < 4.3 | < 4.3 | < 4.3 | < 4.3 | < 4.3
N#Cc1c(Oc2cccc(Cl)c2)cccc1[N+](=O)[O-] [TCMDC-143608] | < 4 | 6.9 | 6.9 | 6.9 | 6.9 | 6.9
Cc1cccc(NS(=O)(=O)c2cnc3sc(C)cn3c2=O)c1 [TCMDC-143372] | < 4 | < 4.3 | < 4.3 | < 4.3 | < 4.3 | < 4.3
O=C(Nc1cccc(F)c1)N1CCC(Oc2cccc(-c3cccnc3)c2)CC1 [TCMDC-143555] | 6.8 | < 4.3 | < 4.3 | < 4.3 | < 4.3 | < 4.3
Cc1nc(N2CCC(C(=O)N3CCC(O)(c4cccnc4)CC3)CC2)nc2ccc(C(C)C)cc12 [TCMDC-143333] | 6.9 | 4.5 | 4.4 | – | – | –
CC(Cn1ccnc1)NC(=O)COc1ccc(Cl)c(Cl)c1 (stereo not drawn) [TCMDC-143479] | 7.2 | < 4.3 | < 4.3 | < 4.3 | < 4.3 | < 4.3
COc1ccc(-c2nc3ccncc3c(=O)n2CCOc2ccccc2)cc1 [TCMDC-143182] | 7.4 | < 4.3 | < 4.3 | < 4.3 | < 4.3 | < 4.3
CN1CCN(c2nc(-c3ccc(Cl)cc3)c3c(N)n(C)nc3n2)CC1 [TCMDC-143426] | < 4 | < 4.3 | < 4.3 | < 4.3 | < 4.3 | < 4.3
Cc1ccc2nc(N(Cc3cccnc3)C(=O)CCc3ccccc3)sc2c1 [TCMDC-143553] | 7.2 | 4.7 | < 4.3 | – | – | –
N#Cc1cccc(CN2CCC(N(Cc3cccnc3)C(=O)c3cc(F)c(F)cc3F)CC2)c1 [TCMDC-143178] | 7.3 | < 4.3 | < 4.3 | < 4.3 | < 4.3 | < 4.3
CCCC(=O)N(Cc1ccccn1)c1nc2ccccc2s1 [TCMDC-143599] | 7.3 | < 4.3 | < 4.3 | < 4.3 | < 4.3 | < 4.3
CS(=O)(=O)O.Cc1cc(Br)cc(C(=O)c2c(C(C)C)c(=O)[nH]c(=O)n2Cc2ccnc(N)c2)c1 [TCMDC-143626] | 7.8 | < 4.3 | < 4.3 | < 4.3 | < 4.3 | < 4.3
